Test results from US20250154169A1, “COMPOUNDS AND METHODS FOR MODULATING SPLICING” (REMIX THERAPEUTICS INC., priority 2021, published 2025).
Where a name gives a salt, the structure may show the parent alone. Read-outs that look alike come from different tables or passages of the source.

Tests used:
Assay type in all cases: cell-based, human
HTT mRNA [1] = experiment: Splicing RT-qPCR assay, HTT canonical (CJ) and alternative (AJ) junction mRNA; conditions: Homo sapiens, A673 or K562 cells, 24 hours compound treatment; for IC50: 24 h, read-out: HTT CJ (IC50, decrease in canonical junction mRNA); for AC50: read-out: HTT AJ (AC50, increase in alternative junction mRNA)
Procedure, shortened: (§1)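 Read-out is the abundance of canonical-junction versus new alternative-exon-junction mRNA, determined by real-time qPCR after cDNA synthesis and normalized to a housekeeping gene. It is measured in A673 or K562 cells exposed to compounds for 24 h, top dose 10 uM.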

MYB mRNA = experiment: Splicing RT-qPCR assay, MYB canonical (CJ) and alternative (AJ) junction mRNA; conditions: Homo sapiens; for AC50: read-out: MYB AJ (AC50, increase in alternative junction mRNA)
Procedure, shortened: as §1

SMN2 mRNA = experiment: Splicing RT-qPCR gene panel, SMN2 canonical junction (CJ) mRNA; conditions: Homo sapiens, Tables 4A/4B, read-out: SMN2 (IC50, decrease in CJ mRNA, gene panel)
Procedure, shortened: (§2)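 A673 or K562 cells were treated 24 h at 37 °C with an 11-point 3-fold dilution series (top 10 uM, ≤0.25% DMSO). Canonical-junction mRNA was measured in lysates by one-step RT-qPCR, normalized to GAPDH, GUSB or PPIA and DMSO control (2^(−ΔΔCt)), expressed as percentage response.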

Target C mRNA = experiment: Splicing RT-qPCR gene panel, Target C canonical junction (CJ) mRNA; conditions: Homo sapiens, Tables 4A/4B, read-out: Target C (IC50, decrease in CJ mRNA, gene panel)
Procedure, shortened: as §2

HTT mRNA [2] = experiment: Splicing RT-qPCR gene panel, HTT canonical junction (CJ) mRNA; conditions: Homo sapiens, Tables 4A/4B, read-out: HTT (IC50, decrease in CJ mRNA, gene panel)
Procedure, shortened: as §2

[3] = 24 h, A673 or K562 cells, 24 hours compound treatment, RT-qPCR
[4] = 24 h, A673 or K562 cells, 24 hours compound treatment, RT-qPCR, read-out: MYB CJ (IC50, decrease in canonical junction mRNA)
[5] = Tables 4A/4B, canonical junction qPCR panel, read-out: MYB (IC50, decrease in CJ mRNA, gene panel)

Row | Compound | IC50 (HTT mRNA [1]) | IC50 (MYB mRNA; [4]) | IC50 (MYB mRNA; [5]) | IC50 (SMN2 mRNA) | IC50 (Target C mRNA) | IC50 (HTT mRNA [2]) | AC50 (HTT mRNA [1]) | AC50 (MYB mRNA; [3])
1 | Cc1cn2cc(NC(=O)c3ccc(N4CCNCC4)c4cn(Cc5ccc6[nH]ncc6c5)nc34)cc(F)c2n1 [Compound 340, N-{8-fluoro-2-methylimidazo[1,2-a]pyridin-6-yl}-2-(1H-indazol-5-ylmethyl)-4-(piperazin-1-yl) indazole-7-carboxamide trifluoroacetate] | > 10000 nM | 1000 to 10000 nM | 1000 to 10000 nM | 100 to 1000 nM | > 10000 nM | > 10000 nM | > 10000 nM | 1000 to 10000 nM
2 | Cc1cn2cc(NC(=O)c3ccc(N4CCNCC4)c4cn(Cc5cn[nH]c5)nc34)cc(F)c2n1 [Compound 341, N-{8-fluoro-2-methylimidazo[1,2-a]pyridin-6-yl}-4-(piperazin-1-yl)-2-(1H-pyrazol-4-ylmethyl)indazole-7-carboxamide] | > 10000 nM | 1000 to 10000 nM | 1000 to 10000 nM | 100 to 1000 nM | > 10000 nM | > 10000 nM | > 10000 nM | 1000 to 10000 nM
3 | Cc1cn2cc(NC(=O)c3ccc(N4CCNCC4)c4cn(C)nc34)[nH]c(=O)c2n1 [Compound 342, N-{8-hydroxy-2-methylimidazo[1,2-a]pyrazin-6-yl}-2-methyl-4-(piperazin-1-yl) indazole-7-carboxamide] | > 10000 nM | 1000 to 10000 nM | 1000 to 10000 nM | > 10000 nM | > 10000 nM | > 10000 nM | > 10000 nM | > 10000 nM
4 | COc1c(NC(=O)c2ccc(N3CCNCC3)c3cn(C)nc23)cn2cc(C)nc2c1F [Compound 343, N-{8-fluoro-7-methoxy-2-methylimidazo[1,2-a]pyridin-6-yl}-2-methyl-4-(piperazin-1-yl) indazole-7-carboxamide] | < 100 nM | < 100 nM | < 100 nM | < 100 nM | 100 to 1000 nM | < 100 nM | < 100 nM | < 100 nM
5 | COc1c(NC(=O)c2ccc(N3CCNCC3)c3cn(C)nc23)cc2cn(C)nc2c1C [Compound 344, N-(6-methoxy-2,7-dimethylindazol-5-yl)-2-methyl-4-(piperazin-1-yl) indazole-7-carboxamide trifluoroacetate] | > 10000 nM | 1000 to 10000 nM | 1000 to 10000 nM | 100 to 1000 nM | > 10000 nM | > 10000 nM | > 10000 nM | 1000 to 10000 nM
6 | Cc1cn2cc(NC(=O)c3ccc(N4CCC(NCc5ccccn5)CC4)c4cn(C)nc34)cc(F)c2n1 [Compound 347, N-{8-fluoro-2-methylimidazo[1,2-a]pyridin-6-yl}-2-methyl-4-{4-[(pyridin-2-ylmethyl)amino]piperidin-1-yl}indazole-7-carboxamide] | 1000 to 10000 nM | < 100 nM | < 100 nM | < 100 nM | 1000 to 10000 nM | 1000 to 10000 nM | 1000 to 10000 nM | < 100 nM
7 | Cc1cn2cc(NC(=O)c3ccc(N4CCC5(CC4)CNC5)c4cn(C)nc34)cc(F)c2n1 [Compound 348, 4-{2,7-diazaspiro[3.5]nonan-7-yl}-N-{8-fluoro-2-methylimidazo[1,2-a]pyridin-6-yl}-2-methylindazole-7-carboxamide] | 1000 to 10000 nM | < 100 nM | < 100 nM | < 100 nM | 1000 to 10000 nM | 1000 to 10000 nM | 1000 to 10000 nM | < 100 nM
8 | Cc1cn2cc(NC(=O)c3ccc(N4CCC5(CCCN5)CC4)c4cn(C)nc34)cc(F)c2n1 [Compound 349, 4-{1,8-diazaspiro[4.5]decan-8-yl}-N-{8-fluoro-2-methylimidazo[1,2-a]pyridin-6-yl}-2-methylindazole-7-carboxamide] | 100 to 1000 nM | < 100 nM | < 100 nM | < 100 nM | 100 to 1000 nM | 100 to 1000 nM | 100 to 1000 nM | < 100 nM
9 | Cc1cn2cc(NC(=O)c3ccc(N4CCNCC4)c4cn(C5CC(O)C5)nc34)cc(F)c2n1 (stereo not drawn) [Compound 355, N-{8-fluoro-2-methylimidazo[1,2-a]pyridin-6-yl}-2-(3-hydroxycyclobutyl)-4-(piperazin-1-yl)indazole-7-carboxamide] | > 10000 nM | < 100 nM | < 100 nM | < 100 nM | > 10000 nM | > 10000 nM | 1000 to 10000 nM | < 100 nM
10 | Cc1cn2cc(NC(=O)c3ccc(N4CCNCC4)c4cn(C5CCOC5)nc34)cc(F)c2n1 (stereo not drawn) [Compound 356, N-{8-fluoro-2-methylimidazo[1,2-a]pyridin-6-yl}-2-(oxolan-3-yl)-4-(piperazin-1-yl)indazole-7-carboxamide] | > 10000 nM | 100 to 1000 nM | 100 to 1000 nM | < 100 nM | > 10000 nM | > 10000 nM | > 10000 nM | 100 to 1000 nM
11 | CNc1cc(N2CCNCC2)c2cn(C)nc2c1C(=O)Nc1cc(F)c2nc(C)cn2c1 [Compound 362, N-{8-fluoro-2-methylimidazo[1,2-a]pyridin-6-yl}-2-methyl-6-(methylamino)-4-(piperazin-1-yl) indazole-7-carboxamide] | > 10000 nM | 1000 to 10000 nM | 1000 to 10000 nM | 100 to 1000 nM | > 10000 nM | > 10000 nM | > 10000 nM | 1000 to 10000 nM

More lines, main results first:

Row | IC50 (HTT mRNA [1]) | IC50 (MYB mRNA; [4]) | IC50 (MYB mRNA; [5]) | IC50 (SMN2 mRNA) | IC50 (Target C mRNA) | IC50 (HTT mRNA [2]) | Compound | AC50 (HTT mRNA [1]) | AC50 (MYB mRNA; [3])
12 | > 10000 nM | 1000 to 10000 nM | 1000 to 10000 nM | 100 to 1000 nM | > 10000 nM | > 10000 nM | CC(=O)Cn1cc2c(N3CCNCC3)ccc(C(=O)Nc3cc(F)c4nc(C)cn4c3)c2n1 [Compound 339, N-{8-fluoro-2-methylimidazo[1,2-a]pyridin-6-yl}-2-(2-oxopropyl)-4-(piperazin-1-yl)indazole-7-carboxamide] | > 10000 nM | 1000 to 10000 nM
13 | > 10000 nM | 1000 to 10000 nM | 1000 to 10000 nM | 100 to 1000 nM | > 10000 nM | > 10000 nM | Cc1cn2cc(NC(=O)c3ccc(N4CCNCC4)c4cn(CC(C)(C)O)nc34)cc(F)c2n1 [Compound 354, N-{8-fluoro-2-methylimidazo[1,2-a]pyridin-6-yl}-2-(2-hydroxy-2-methylpropyl)-4-(piperazin-1-yl)indazole-7-carboxamide] | > 10000 nM | 1000 to 10000 nM
14 | 1000 to 10000 nM | 100 to 1000 nM | 100 to 1000 nM | < 100 nM | > 10000 nM | 1000 to 10000 nM | Cc1cn2cc(NC(=O)c3ccc(N4CCNCC4)c4cn(CC5(O)CC5)nc34)cc(F)c2n1 [Compound 358, N-{8-fluoro-2-methylimidazo[1,2-a]pyridin-6-yl}-2-[(1-hydroxycyclopropyl)methyl]-4-(piperazin-1-yl)indazole-7-carboxamide] | > 10000 nM | 100 to 1000 nM
15 | 1000 to 10000 nM | 1000 to 10000 nM | 1000 to 10000 nM | < 100 nM | > 10000 nM | 1000 to 10000 nM | Cc1cn2cc(NC(=O)c3ccc(N4CCNCC4)c4cn(CC(C)(F)F)nc34)cc(F)c2n1 [Compound 364, 2-(2,2-difluoropropyl)-N-{8-fluoro-2-methylimidazo[1,2-a]pyridin-6-yl}-4-(piperazin-1-yl) indazole-7-carboxamide; trifluoroacetic acid] | > 10000 nM | 100 to 1000 nM
16 | 1000 to 10000 nM | < 100 nM | < 100 nM | < 100 nM | > 10000 nM | 1000 to 10000 nM | Cc1cn2cc(NC(=O)c3ccc(N4CCNCC4)c4cn(Cc5cnco5)nc34)cc(F)c2n1 [Compound 366, N-{8-fluoro-2-methylimidazo[1,2-a]pyridin-6-yl}-2-(1,3-oxazol-5-ylmethyl)-4-(piperazin-1-yl) indazole-7-carboxamide] | 1000 to 10000 nM | < 100 nM
17 | 1000 to 10000 nM | 100 to 1000 nM | 100 to 1000 nM | < 100 nM | > 10000 nM | 1000 to 10000 nM | COC(C)Cn1cc2c(N3CCNCC3)ccc(C(=O)Nc3cc(F)c4nc(C)cn4c3)c2n1 (stereo not drawn) [Compound 367, N-{8-fluoro-2-methylimidazo[1,2-a]pyridin-6-yl}-2-(2-methoxypropyl)-4-(piperazin-1-yl) indazole-7-carboxamide; trifluoroacetic acid] | 1000 to 10000 nM | 100 to 1000 nM
18 | > 10000 nM | 100 to 1000 nM | 100 to 1000 nM | < 100 nM | > 10000 nM | > 10000 nM | Cc1cn2cc(NC(=O)c3ccc(N4CCNCC4)c4cn(Cc5cn(C)nn5)nc34)cc(F)c2n1 [Compound 368, N-{8-fluoro-2-methylimidazo[1,2-a]pyridin-6-yl}-2-[(1-methyl-1,2,3-triazol-4-yl)methyl]-4-(piperazin-1-yl) indazole-7-carboxamide; trifluoroacetic acid] | > 10000 nM | 100 to 1000 nM
